{
  "source": "patent US20250049802A1",
  "about": "“COMBINATION THERAPIES AND USES FOR TREATING CANCER” (Pfizer Inc., priority 2021, published 2025)",
  "key": {"[1]": {"tested_on": "ST941 PDX breast cancer model", "test": "In vivo efficacy (tumor growth inhibition) in the HR+/HER2− ST941 PDX model", "design": "species or system female athymic nude mice", "experimental": "The HR+/HER2− PDX studies were performed at START (San Antonio, TX) using female athymic nude mice (Foxn1nu/Foxn1nu, JAX Laboratories). Mice received 8.5 μg/mL β estradiol drinking water during study. The live donor mice were established by implanting cryopreserved tumor fragments (around 70 mg). Once ready, the donor tumor fragments were subsequently transplanted into secondary recipient mice for a study expansion.\nPalbocidib was dosed twice daily (7 hr apart). PF-06821497 and vehicle was dosed once daily. Fulvestrant was administered twice in the first week, then weekly afterwards. TGI was assessed on Day 36 post first dose.\nTumor volume and body weights were measured twice a week after dosing initiation. Tumor volume i was calculated using the [(Length×Width×Width)/2)] formula. TGI was calculated as 100*(1−ΔT/ΔC). The ΔC (ΔT) was obtained by subtracting the mean tumor burden in the vehicle (treated) group on the first day of treatment (Day 0) from the mean tumor burden in vehicle (treated) group on the assessment day. All mice received treatment continuously until the day of efficacy assessment. Statistical analysis was performed in GraphPad Prism with an unpaired t test, followed by Mann-Whitney test.\nThe ST941 tumor bearing mice were randomized into 4 groups when the mean tumor volume reached around 177 mm3 and subsequently treated."}, "[2]": {"tested_on": "HCC1428 breast cancer model", "test": "In vivo efficacy (tumor growth inhibition) in the HR+/HER2− HCC1428 breast cancer model", "design": "species or system female NSG mice", "experimental": "HCC1428 cells (ATCC, CRL-2327) were maintained in PRMI-1640 medium, plus 10% FBS until ready for implant. HCC1428 model was established by serial in vivo propagation. To establish the HCC1428 donor mice, tumor cells (5×10^6 cell/mouse with 50% Cultrex® Basement Membrane Matrix) were subcutaneously implanted in female NSG mice with estrogen supplementation (SC implanted, in 0.36 mg 90-day release, Innovative Research of America, cat #NE-121). Once reaching a range of 700 to 800 mm3, donor tumors were subsequently transplanted into secondary recipient mice for a study expansion. In this study, the HCC1428 model was established by implanting passage 4 tumor fragments into recipient mice. […] TGI was assessed on Day 36 post first dose.\nTumor volume and body weights were measured twice a week after dosing initiation. Tumor volume i was calculated using the [(Length×Width×Width)/2)] formula. TGI was calculated as 100*(1−ΔT/ΔC). […]"}},
  "data": [
    {"compound": "COc1cc(C)[nH]c(=O)c1CN1CCc2c(Cl)cc([C@H](OC)C3COC3)c(Cl)c2C1=O", "note": "[PF-06821497, 5,8-dichloro-2-[(4-methoxy-6-methyl-2-oxo-1,2-dihydro-pyridin-3-yl)methyl]-7-[(R)-methoxy(oxetan-3-yl)methyl]-3,4-dihydroisoquinolin-1(2H)-one]", "values": [
      {"measurement": "% TGI (D18)", "setting": "[1]; TGI = 100*(1−ΔT/ΔC), doses and schedules per Table 2", "result": 44.6, "unit": "%"},
      {"measurement": "antitumor efficacy vs vehicle", "setting": "[1]; p<0.05 vs vehicle", "result": "significant antitumor efficacy"},
      {"measurement": "% TGI (D36)", "setting": "[2]; Day 36 post first dose, TGI = 100*(1−ΔT/ΔC), doses and schedules per Table 1", "result": 55, "unit": "%"},
      {"measurement": "antitumor efficacy vs vehicle", "setting": "[2]; p<0.05 vs vehicle", "result": "significant antitumor efficacy"}
    ]}
  ]
}
